Here are results for 20 molecules from patent publication US20150246025A1, “2-PHENYL-5-HETEROCYCLYL-TETRAHYDRO-2H-PYRAN-3-AMINE COMPOUNDS FOR USE IN THE TREATMENT OF DIABETES AND ITS ASSOCIATED DISORDERS” (CADILA HEALTHCARE LIMITED, priority 2012, published 2015).

Where only a bound is given, the exact number is not on record here.

In general, IC50 refers to the concentration that gives 50% inhibition.

In assay [1] the target is T1, DPP-IV enzyme (Homo sapiens, UniProt P27487).
T1 construct: soluble human proteins (DPP-IV enzyme) produced in a baculovirus expression system; made in house; host or cells: baculovirus expression system (Life Technologies)
Description: In vitro DPP-IV inhibitory activity using enzymatic (fluorescence-based) assay. It is filed as biochemical. The following applies: soluble human DPP-IV, H-Gly-Pro-AMC 200 μM, pH 7.8, 25° C., 30 min; read-out: % In-vitro DPPIV Inhibition IC50. How it is done:
In Vitro DPP-IV Inhibitory Activity Using Enzymatic Assay:
In vitro enzyme (DPP-IV) inhibitory activity was determined using fluorescence-based assay (Anal. Biochem., 200, 352, 1992). The Gly-Pro-AMC was used as a substrate (which is cleaved by the enzymes to release the fluorescent AMC) and soluble human proteins (DPP-IV enzyme) produced in a baculovirus expression system (Life Technologies) was used as the enzyme source. The H-Gly-Pro-AMC (200 μM) was incubated with DPP-IV enzyme in the presence of various concentrations (30 & 100 nM) of test compounds. Reaction was carried out at pH 7.8 (HEPES buffer 25 mM containing 1.0% BSA, 140 mM NaCl, 16 mM MgCl2, 2.8% DMSO) in a total volume of 100 μl at 25° C. for 30 min., in the dark. Reaction was terminated with acetic acid (25 μl of 25% solution). Activity (fluorescence) was measured using Spectra Max fluorometer (Molecular Devices, Sunnyvale Calif.) by exciting at 380 nm and emission at 460 nm.

Assay [2] deals with C57BL/6J mice. As to the kind of experiment: In vivo antihyperglycaemic/antidiabetic activity (OGTT), acute single dose 120-min time-course. To be noted: Mus musculus, 2 h; male C57BL/6J mice, acute single dose 0,3 mg/kg po, 120-min time-course, n = 6, Mean ± SEM; read-out: In vivo OGTT C57; % Glucose change. How it is done:
Acute single dose 120-min time-course experiments were carried out in male C57BL/6J mice, age 8-12 weeks, bred in-house. Animals were housed in groups of 6 animals per cage, for a week, in order to habituate them to vivarium conditions (25±4° C., 60-65% relative humidity, 12: 12 h light: dark cycle, with lights on at 7.30 am). All the animal experiments were carried out according to the internationally valid guidelines following approval by the ‘Zydus Research Center animal ethical committee’.
The in-vivo glucose lowering properties of the test compounds were evaluated in C57BL/6J (mild hyperglycemic) animal models as described below. Two days prior to the study, the animals were randomized and divided into groups (n=6), based upon their fed glucose levels. On the day of experiment, food was withdrawn from all the cages, water was given ad-libitum and were kept for overnight fasting. Vehicle (normal saline)/test compounds were administered orally, on a body weight basis. Soon after the 0 min. blood collection from each animal, the subsequent blood collections were done at 30, 60 and 120 or upto 240 min., via retro-orbital route, under light ether anesthesia (Diabetes Obesity Metabolism, 7, 307, 2005; Diabetes, 52, 751, 2003).
Blood samples were centrifuged and the separated serum was immediately subjected for the glucose estimation. Serum for insulin estimation was stored at −70° C. until used for the insulin estimation. The glucose estimation was carried out with DPEC-GOD/POD method (Ranbaxy Fine Chemicals Limited, Diagnostic division, India), using Spectramax-190, in 96-microwell plate reader (Molecular devices Corporation, Sunnyvale, Calif.). […] The AUC and BCAUC obtained from graphs were analyzed for one way ANOVA, followed by Dunnett's post test, using Graph Pad prism software.

T1 sequence (P27487 39-766 limits assumed): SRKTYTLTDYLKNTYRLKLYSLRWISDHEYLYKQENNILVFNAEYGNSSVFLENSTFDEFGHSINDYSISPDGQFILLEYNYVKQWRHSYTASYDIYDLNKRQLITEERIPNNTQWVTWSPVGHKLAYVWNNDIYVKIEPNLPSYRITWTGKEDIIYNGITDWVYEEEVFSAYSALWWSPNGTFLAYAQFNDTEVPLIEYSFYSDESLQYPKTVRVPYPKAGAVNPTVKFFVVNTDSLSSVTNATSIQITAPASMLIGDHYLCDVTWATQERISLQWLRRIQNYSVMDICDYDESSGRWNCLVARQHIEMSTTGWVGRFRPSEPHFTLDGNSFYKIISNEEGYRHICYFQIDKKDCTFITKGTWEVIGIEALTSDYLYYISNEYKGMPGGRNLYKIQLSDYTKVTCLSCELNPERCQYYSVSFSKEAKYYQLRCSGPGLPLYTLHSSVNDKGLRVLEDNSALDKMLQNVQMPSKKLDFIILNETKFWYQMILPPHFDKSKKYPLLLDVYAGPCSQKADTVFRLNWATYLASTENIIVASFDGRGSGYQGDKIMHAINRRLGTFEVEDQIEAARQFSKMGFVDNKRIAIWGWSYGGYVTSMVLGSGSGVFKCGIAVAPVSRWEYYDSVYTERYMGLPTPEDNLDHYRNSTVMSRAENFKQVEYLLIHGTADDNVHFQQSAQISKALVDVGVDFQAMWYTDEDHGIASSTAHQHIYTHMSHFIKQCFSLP

As to `CC(=O)N[C@H]1C[C@@H](N2CC3=C(CN(C(C)=O)C3)C2)CO[C@@H]1c1cc(F)ccc1F` [Compound 47, N-((2R,3S,5R)-5-(5-acetyl-5,6-dihydropyrrolo[3,4-c]pyrrol-2(1H,3H,4H)-yl)-2-(2,5-difluorophenyl)tetrahydro-2H-pyran-3-yl)acetamide], the IC50 in assay [1] is below 100 nM. Also, the change in vivo at 0.3 mg/kg in assay [2] was determined as 8.6 ± 5.9%.
On to `N[C@H]1C[C@@H](N2CC3=C(CN(C(=O)c4ccccc4)C3)C2)CO[C@@H]1c1cc(F)ccc1F` [Compound 23, (5-((3R,5S,6R)-5-amino-6-(2,5-difluorophenyl)tetrahydro-2H-pyran-3-yl)-5,6-dihydropyrrolo[3,4-c]pyrrol-2(1H,3H,4H)-yl)(phenyl)methanone], for which the IC50 in assay [1] was below 30 nM. Also, in assay [2], the change in vivo at 0.3 mg/kg is -22 ± 1.2%.
Take `CN(C)S(=O)(=O)N1CC2=C(CN([C@H]3CO[C@H](c4cc(F)ccc4F)[C@@H](N)C3)C2)C1` [Compound 9, 5-((3R,5S,6R)-5-amino-6-(2,5-difluorophenyl)tetrahydro-2H-pyran-3-yl)-N,N-dimethyl-3,4,5,6-tetrahydropyrrolo[3,4-c]pyrrole-2(1H)-sulfonamide]: the half-inhibitory concentration (IC50) in assay [1] is below 10 nM. Further, in assay [2], the change in vivo at 0.3 mg/kg is -34.7 ± 4.4%.
As to `CS(=O)(=O)N1C[C@H]2CN([C@H]3CO[C@H](c4cc(F)ccc4F)[C@@H](N)C3)[C@H]2C1` [Compound 20, (2R,3S,5R)-2-(2,5-difluorophenyl)-5-((1R,5R)-3-(methylsulfonyl)-3,6-diazabicyclo[3.2.0]heptan-6-yl)tetrahydro-2H-pyran-3-amine], in assay [1], the IC50 was below 100 nM. Also, in assay [2], the change in vivo at 0.3 mg/kg was -8.4 ± 1.7%.
For `N[C@H]1C[C@@H](N2CC3=C(C2)CN(S(=O)(=O)c2ccc(OC(F)(F)F)cc2)C3)CO[C@@H]1c1cc(F)ccc1F` [Compound 35, (2R,3S,5R)-2-(2,5-difluorophenyl)-5-(5-((4-(trifluoromethoxy)phenyl)sulfonyl)-5,6-dihydropyrrolo[3,4-c]pyrrol-2(1H,3H,4H)-yl)tetrahydro-2H-pyran-3-amine], in assay [1], the IC50 was below 30 nM. Besides, the change in vivo at 0.3 mg/kg in assay [2] is -20.5 ± 3.8%.
The corresponding values for `CS(=O)(=O)NC1CC2CN([C@H]3CO[C@H](c4cc(F)ccc4F)[C@@H](N)C3)CC2C1` (stereo partly drawn) [Compound 21, N-(2-((3R,5S,6R)-5-amino-6-(2,5-difluorophenyl)tetrahydro-2H-pyran-3-yl)octahydrocyclopenta[c]pyrrol-5-yl)methanesulfonamide] are below 100 nM and -15 ± 4%.
The like results for `CCOC(=O)N1CC2=C(C1)CN([C@H]1CO[C@H](c3cc(F)ccc3F)[C@@H](N)C1)C2` [Compound 28, (2R,3S,5R)-2-(2,5-difluorophenyl)-5-(5-(ethoxycarbonyl)-5,6-dihydropyrrolo[3,4-c]pyrrol-2(1H,3H,4H)-yl)tetrahydro-2H-pyran-3-amine] were, in that order, below 10 nM and -35 ± 6.1%.
With `N[C@H]1C[C@@H](N2CC3CN(S(=O)(=O)C(F)(F)F)CC3C2)CO[C@@H]1c1cc(F)ccc1F` (stereo partly drawn) [Compound 5, (2R,3S,5R)-2-(2,5-difluorophenyl)-5-(5-((trifluoromethyl)sulfonyl)hexahydropyrrolo[3,4-c]pyrrol-2(1H)-yl)tetrahydro-2H-pyran-3-amine], in assay [1], the IC50 was below 100 nM. Besides, in assay [2], the change in vivo at 0.3 mg/kg is -7.6 ± 1.3%.
For the molecule `N[C@H]1C[C@@H](N2CC3=C(CN(C(=O)C4CC4)C3)C2)CO[C@@H]1c1cc(F)ccc1F` [Compound 22, (2R,3S,5R)-5-(5-(cyclopropanecarbonyl)-5,6-dihydropyrrolo[3,4-c]pyrrol-2(1H,3H,4H)-yl)-2-(2,5-difluorophenyl)tetrahydro-2H-pyran-3-amine], the IC50 in assay [1] is below 30 nM. The change in vivo at 0.3 mg/kg in assay [2] is -25.1 ± 2%.
The corresponding values for `N[C@H]1C[C@@H](N2CC3C(=O)N(C4CC4)C(=O)C3C2)CO[C@@H]1c1cc(F)ccc1F` (stereo partly drawn) [Compound 10, 5-((3R,5S,6R)-5-amino-6-(2,5-difluorophenyl)tetrahydro-2H-pyran-3-yl)-2-cyclopropyltetrahydropyrrolo[3,4-c]pyrrole-1,3(2H,3aH)-dione] are below 100 nM and -12.5 ± 1.3%.
The corresponding values for `CS(=O)(=O)N1CC2CCN([C@H]3CO[C@H](c4cc(F)ccc4F)[C@@H](N)C3)CC2C1` (stereo partly drawn) [Compound 13, (2R,3S,5R)-2-(2,5-difluorophenyl)-5-(2-(methylsulfonyl)hexahydro-1H-pyrrolo[3,4-c]pyridin-5(6H)-yl)tetrahydro-2H-pyran-3-amine] are below 10 nM and -26.4 ± 1.6%.
The corresponding values for `CC(C)CS(=O)(=O)N1CC2=C(CN([C@H]3CO[C@H](c4cc(F)ccc4F)[C@@H](N)C3)C2)C1` [Compound 42, (2R,3S,5R)-2-(2,5-difluorophenyl)-5-(5-(isobutylsulfonyl)-5,6-dihydropyrrolo[3,4-c]pyrrol-2(1H,3H,4H)-yl)tetrahydro-2H-pyran-3-amine] are below 30 nM and -25.1 ± 2.8%.
As for `N[C@H]1C[C@@H](N2CC3CS(=O)(=O)CC3C2)CO[C@@H]1c1cc(F)ccc1F` (stereo partly drawn) [Compound 43, 5-((3R,5S,6R)-5-amino-6-(2,5-difluorophenyl)tetrahydro-2H-pyran-3-yl)hexahydro-1H-thieno[3,4-c]pyrrole 2,2-dioxide], the IC50 in assay [1] is below 30 nM. The change in vivo at 0.3 mg/kg in assay [2] was -15.5 ± 3.6%.
The corresponding values for `CC(C)C(=O)N1CC2=C(C1)CN([C@H]1CO[C@H](c3cc(F)ccc3F)[C@@H](N)C1)C2` [Compound 24, 1-(5-((3R,5S,6R)-5-amino-6-(2,5-difluorophenyl)tetrahydro-2H-pyran-3-yl)-5,6-dihydropyrrolo[3,4-c]pyrrol-2(1H,3H,4H)-yl)-2-methylpropan-1-one] are below 30 nM and -18.9 ± 5.7%.
The corresponding values for `N[C@H]1C[C@@H](N2CC3=C(CN(C(=O)C(F)(F)F)C3)C2)CO[C@@H]1c1cc(F)ccc1F` [Compound 50, 1-(5-((3R,5S,6R)-5-amino-6-(2,5-difluorophenyl)tetrahydro-2H-pyran-3-yl)-5,6-dihydropyrrolo[3,4-c]pyrrol-2(1H,3H,4H)-yl)-2,2,2-trifluoroethanone] are below 10 nM and -30 ± 1.4%.
The corresponding values for `CS(=O)(=O)N1CCC2CN([C@H]3CO[C@H](c4cc(F)ccc4F)[C@@H](N)C3)CC21` (stereo partly drawn) [Compound 15, (2R,3S,5R)-2-(2,5-difluorophenyl)-5-(1-(methylsulfonyl)hexahydropyrrolo[3,4-b]pyrrol-5(1H)-yl)tetrahydro-2H-pyran-3-amine] are below 100 nM and -42 ± 1.8%.
Take `CS(=O)(=O)N1CCC2CN([C@H]3CO[C@H](c4cc(F)ccc4F)[C@@H](N)C3)CC2C1` (stereo partly drawn) [Compound 12, (2R,3S,5R)-2-(2,5-difluorophenyl)-5-(5-(methylsulfonyl)hexahydro-1H-pyrrolo[3,4-c]pyridin-2(3H)-yl)tetrahydro-2H-pyran-3-amine]: in assay [1], the IC50 was below 100 nM. In assay [2], the change in vivo at 0.3 mg/kg was -9.8 ± 1.5%.
The like results for `CC(=O)N1CC2=C(C1)CN([C@H]1CO[C@H](c3cc(F)ccc3F)[C@@H](N)C1)C2` [Compound 41, (2R,3S,5R)-5-(5-acetyl-5,6-dihydropyrrolo[3,4-c]pyrrol-2(1H,3H,4H)-yl)-2-(2,5-difluorophenyl)tetrahydro-2H-pyran-3-amine] were, in that order, below 100 nM and -6.04 ± 2.6%.
The corresponding values for `N[C@H]1C[C@@H](N2CC3CN(Cc4ccccc4)CC3C2)CO[C@@H]1c1cc(F)ccc1F` (stereo partly drawn) [Compound 18, (2R,3S,5R)-5-(5-benzylhexahydropyrrolo[3,4-c]pyrrol-2(1H)-yl)-2-(2,5-difluorophenyl)tetrahydro-2H-pyran-3-amine] are below 100 nM and -12.6 ± 4%.
For the molecule `COC(=O)N1CC2=C(C1)CN([C@H]1CO[C@H](c3cc(F)ccc3F)[C@@H](N)C1)C2` [Compound 27, (2R,3S,5R)-2-(2,5-difluorophenyl)-5-(5-(methoxycarbonyl)-5,6-dihydropyrrolo-[3,4-c]pyrrol-2(1H,3H,4H)-yl)tetrahydro-2H-pyran-3-amine], the IC50 in assay [1] is below 10 nM. The change in vivo at 0.3 mg/kg in assay [2] was -13.7 ± 1.2%.
